Measured values reported in US12371454B2, “Cyclic peptide compound having Kras inhibitory action” (priority 2019, dated 2025).
Starred links: 1 amine or outer side, 2 acyl side, 3 side chain; linkers in the order of their positions; H or OH if unused. Positions of bridges follow the written chain, without caps; N, C: chain ends. Non-standard residues stand in square brackets, D forms with d. Residues, ends and D or L forms follow the SMILES beside them. *: point of attachment. hPhe(3-Cl-4-CF3) = N[C@@H](CCc1ccc(C(F)(F)F)c(Cl)c1)C(=O)O; 3Oxa8azabicyclo(3.2.1)octane = C1CC2COCC1N2*; NMeAbu(4,4,4-F3) = CN[C@@H](CC(F)(F)F)C(=O)O; NMePhe(4-Me) = CN[C@@H](Cc1ccc(C)cc1)C(=O)O; NMedβ3hAla = C[C@H](CC(=O)[*:2])N(C)[*:1]; NMeGly(cBu) = CN[C@H](C(=O)O)C1CCC1; NMeCha = CN[C@@H](CC1CCCCC1)C(=O)O; NMeGly(cPr) = CN[C@H](C(=O)O)C1CC1; NMeCba = CN[C@@H](CC1CCC1)C(=O)O; NMeChg = CN[C@H](C(=O)O)C1CCCCC1; NMeF = CN[C@@H](Cc1ccccc1)C(=O)O; NMeI = CC[C@H](C)[C@H](NC)C(=O)O; NMeD = CN[C@@H](CC(=O)O)C(=O)O; NMeL = CN[C@@H](CC(C)C)C(=O)O; NMeV = CN[C@H](C(=O)O)C(C)C; NMeS = CN[C@@H](CO)C(=O)O; Pip = O=C(O)[C@@H]1CCCCN1; Iva = CC[C@](C)(N)C(=O)O; NMeA = CN[C@@H](C)C(=O)O; Piperidide = C1CCN(*)CC1; Ac5c = NC1(C(=O)O)CCCC1; Aze = O=C(O)[C@@H]1CCN1; Sar = CNCC(=O)O; Propyl = CCC*

Key:
[1] = molecular target: T1, Kras and SOS1 (biotin-tagged human Kras loaded with GDP, His-tagged human SOS1) (Homo sapiens, UniProt P01116, G12D); assay: Protein-protein interaction inhibition between Kras and SOS1 (KrasGl2D-SOS PPI) using AlphaScreen; type: binding; conditions: AlphaScreen; biotin-tagged human Kras loaded with GDP, His-tagged human SOS1; read-out: KRAS G12D-SOS PPI IC50
T1 construct: made in house; host or cells: E. coli (stated for Kras only)
T1 sequence (P01116 1-188 isoform P01116-2 G12D): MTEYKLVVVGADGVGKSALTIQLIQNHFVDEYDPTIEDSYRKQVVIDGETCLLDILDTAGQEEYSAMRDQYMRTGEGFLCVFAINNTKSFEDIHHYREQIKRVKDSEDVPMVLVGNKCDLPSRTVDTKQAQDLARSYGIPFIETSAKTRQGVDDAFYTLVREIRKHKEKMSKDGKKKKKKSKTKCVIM
How it was run: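 Binding between SOS1 and Kras is detected as bead-proximity luminescence: illuminate Ni-conjugated donors (680 nm), collect 520-620 nm emission from streptavidin-conjugated acceptors; Kras carries biotin and GDP loaded after purification, SOS1 carries a His tag.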

[2] = tested on: Human pancreatic cancer cell line AsPC-1; assay: Measurement of AsPC-1 cell growth inhibition (AsPC-1 CGI); type: cell-based; conditions: 96 h
How it was run: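 AsPC-1 cells in 15% FBS RPMI-1640 were exposed to test compound for 96 hours at 37° C, with CellTiter-Glo as endpoint.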

Row | Compound | IC50 [1] | IC50 [2]
1 | CCCOC[C@H]1C(=O)N(C)CC(=O)N[C@@H](CCc2ccc(C(F)(F)F)c(Cl)c2)C(=O)N2CCC[C@H]2C(=O)NC2(CCCC2)C(=O)N(C)[C@@H](C2CCCCC2)C(=O)N(C)[C@H](C(=O)N2C3CCC2COC3)CC(=O)N(C)[C@@H](CC(F)(F)F)C(=O)N[C@@H]([C@@H](C)CC)C(=O)N(C)CC(=O)N(C)CC(=O)N1C [Compound 943] ([NMeAbu(4,4,4-F3)]I[Sar][Sar][NMeS](Propyl)[Sar][hPhe(3-Cl-4-CF3)]P[Ac5c][NMeChg][NMeD]-{3Oxa8azabicyclo(3.2.1)octane}; lactam N-11) | 0.83 nM | 100 to 500 nM
2 | CC[C@H](C)[C@@H]1NC(=O)[C@H](CC(C)C)N(C)C(=O)C[C@@H](C)N(C)C(=O)[C@H](C(C)C)N(C)C(=O)[C@](C)(CC)NC(=O)[C@@H]2CCCN2C(=O)[C@H](CCc2ccc(C(F)(F)F)c(Cl)c2)NC(=O)CN(C)C(=O)[C@H](CC2CCCCC2)N(C)C(=O)CN(C)C(=O)CN(C)C1=O [Compound 944] (cyclo(I[Sar][Sar][NMeCha][Sar][hPhe(3-Cl-4-CF3)]P[Iva][NMeV][NMedβ3hAla][NMeL])) | 18 nM | 100 to 500 nM
3 | CC[C@H](C)[C@@H]1NC(=O)[C@H](C2CCC2)N(C)C(=O)C[C@@H](C(=O)N2CCCCC2)N(C)C(=O)[C@H](C(C)C)N(C)C(=O)C2(CCCC2)NC(=O)[C@@H]2CCCN2C(=O)[C@H](CCc2ccc(C(F)(F)F)c(Cl)c2)NC(=O)CN(C)C(=O)[C@H](CC2CCCCC2)N(C)C(=O)CN(C)C(=O)CN(C)C1=O [Compound 948] ([NMeGly(cBu)]I[Sar][Sar][NMeCha][Sar][hPhe(3-Cl-4-CF3)]P[Ac5c][NMeV][NMeD]-Piperidide; lactam N-11) | 3.1 nM | 50 to 100 nM
4 | CC[C@H](C)[C@@H]1NC(=O)[C@H](CC(C)C)N(C)C(=O)C[C@@H](C(=O)N(C)C)N(C)C(=O)[C@H]([C@@H](C)CC)N(C)C(=O)C2(CCCC2)NC(=O)[C@H](C)NC(=O)[C@H](CCc2ccc(C(F)(F)F)c(Cl)c2)NC(=O)CN(C)C(=O)[C@H](Cc2ccc(C)cc2)N(C)C(=O)[C@@H]2CCN2C(=O)[C@H](C)N(C)C1=O [Compound 957] ([NMeL]I[NMeA][Aze][NMePhe(4-Me)][Sar][hPhe(3-Cl-4-CF3)]A[Ac5c][NMeI][NMeD]-NMe2; lactam N-11) | 0.44 nM | 100 to 500 nM
5 | CC[C@H](C)[C@@H]1NC(=O)[C@H](CC(C)C)N(C)C(=O)C[C@@H](C(=O)N(C)C)N(C)C(=O)[C@H]([C@@H](C)CC)N(C)C(=O)C2(CCCC2)NC(=O)[C@H](Cc2ccccc2)N(C)C(=O)[C@H](CCc2ccc(C(F)(F)F)c(Cl)c2)NC(=O)CN(C)C(=O)[C@H](Cc2ccc(C)cc2)N(C)C(=O)[C@@H]2CCN2C(=O)[C@H](C)N(C)C1=O [Compound 958] ([NMeL]I[NMeA][Aze][NMePhe(4-Me)][Sar][hPhe(3-Cl-4-CF3)][NMeF][Ac5c][NMeI][NMeD]-NMe2; lactam N-11) | 2.1 nM | 20 to 50 nM
6 | CC[C@H](C)[C@@H]1NC(=O)[C@H](CC(C)C)N(C)C(=O)C[C@@H](C(=O)N2CCCCC2)N(C)C(=O)[C@H](CC2CCC2)N(C)C(=O)C2(CCCC2)NC(=O)[C@@H]2CCCN2C(=O)[C@H](CCc2ccc(C(F)(F)F)c(Cl)c2)NC(=O)CN(C)C(=O)[C@H](CC2CCCCC2)N(C)C(=O)CN(C)C(=O)CN(C)C1=O [Compound 968] ([NMeL]I[Sar][Sar][NMeCha][Sar][hPhe(3-Cl-4-CF3)]P[Ac5c][NMeCba][NMeD]-Piperidide; lactam N-11) | 3.1 nM | 100 to 500 nM
7 | CC[C@H](C)[C@@H]1NC(=O)[C@H](C2CC2)N(C)C(=O)C[C@@H](C(=O)N2CCCCC2)N(C)C(=O)[C@H](C(C)C)N(C)C(=O)C2(CCCC2)NC(=O)[C@@H]2CCCN2C(=O)[C@H](CCc2ccc(C(F)(F)F)c(Cl)c2)NC(=O)CN(C)C(=O)[C@H](CC2CCCCC2)N(C)C(=O)CN(C)C(=O)CN(C)C1=O [Compound 980] ([NMeGly(cPr)]I[Sar][Sar][NMeCha][Sar][hPhe(3-Cl-4-CF3)]P[Ac5c][NMeV][NMeD]-Piperidide; lactam N-11) | 3.8 nM | 100 to 500 nM
8 | CC[C@H](C)[C@@H]1NC(=O)[C@H](CC2CCCCC2)N(C)C(=O)C[C@@H](C(=O)N2CCCCC2)N(C)C(=O)[C@H](C2CCCCC2)N(C)C(=O)C2(CCCC2)NC(=O)[C@@H]2CCCN2C(=O)[C@H](CCc2ccc(C(F)(F)F)c(Cl)c2)NC(=O)CN(C)C(=O)[C@H](CC2CCCCC2)N(C)C(=O)CN(C)C(=O)CN(C)C1=O [Compound 983] ([NMeCha]I[Sar][Sar][NMeCha][Sar][hPhe(3-Cl-4-CF3)]P[Ac5c][NMeChg][NMeD]-Piperidide; lactam N-11) | 1.8 nM | 100 to 500 nM
9 | CC[C@H](C)[C@@H]1NC(=O)[C@H](CC(C)C)N(C)C(=O)C[C@@H](C(=O)N2CCCCC2)N(C)C(=O)[C@H](C(C)C)N(C)C(=O)C2(CCCC2)NC(=O)[C@@H]2CCCN2C(=O)[C@H](CCc2ccc(C(F)(F)F)c(Cl)c2)NC(=O)CN(C)C(=O)[C@H](CC2CCCCC2)N(C)C(=O)[C@@H]2CCN2C(=O)[C@@H]2CCCCN2C1=O [Compound 988] ([NMeL]I[Pip][Aze][NMeCha][Sar][hPhe(3-Cl-4-CF3)]P[Ac5c][NMeV][NMeD]-Piperidide; lactam N-11) | 12 nM | 100 to 500 nM
